Experimental data taken from US20040133938A1, “Use of lipoic acid in plant culture media” (priority 2002, published 2004).

Tested on: A3244 soybean seed axis explants
Assay: Soybean Agrobacterium transformation, lipoic acid in co-culture media
Format: cell-based
Description: Dry A3244 soybean seeds were germinated by soaking in sterile distilled water (SDW) for three minutes, drained and allowed to slowly imbibe for 2 hours at which time Bean Germination Media (BGM) was added. At approximately 12 hours, seed axis explants were isolated by removing seed coats and cotyledons. Inoculation occurred 14 hours after the addition of SDW.
Explants were placed into sterile Plantcons™ with 20 mL of pMON15737/ABI (FIG. 3) and resuspended to an optical density A660 of approximately 0.3 in 1/10 Gamborg's B5 media (Gamborg et al., Exp. Cell Res., 50:151-158, 1968) containing 3% glucose, 1.68 mg/L BAP, 3.9 g/L MES, […] acetosyringone, 1 mM galactronic acid, and 0.25 mg/L GA3. Each Plantcon™ was sonicated for 20 seconds in a L&R Quantrex S140 sonicator that contained SDW+0.1% Triton X100 in the bath. Plantcons™ were held in place at approximately 2.5 cm below the surface of the bath liquid. Following sonication, explants were inoculated for an additional hour while shaking gently on an orbital shaker at ˜90 RPM. After inoculation, the Agrobacterium was removed. […] Co-culture media consisted of 1/10 Gamborg's B5 media containing 5% glucose, 1.68 mg/L BAP, 3.9 g/L, […] acetosyringone, 1 mM galactronic acid and 0.25 mg/L GA3. Explants were incubated at 23° C. in the dark for 3 days.
Lipoic acid was dissolved in either ethanol or potassium hydroxide to make 100 mg/mL stock. […]
Following co-culture, explants were transferred to solid Woody Plant Media (WPM) (McCown & Lloyd, Proc. International Plant Propagation Soc., 30:421, 1981) containing 2% sucrose, 200 mg/L carbenicillin, 100 mg/L Timetin (ticarcillin+clavulanic acid), +/−100 mg/L cefotaxime, 60 mg/L Benomyl, and 75 μM glyphosate. All explants were placed at 28° C., 16-hour light/8-hour dark photoperiod. A second transfer to the same media was made after two weeks.
Shoots were cut 5-8 weeks post-inoculation and rooted on Bean Rooting Media (BRM) containing 25 μM glyphosate and 100 mg/L Timetin.

[1] = 5 uM LA, KOH, 248 explants, Table 12
[2] = 5 uM LA, 244 explants, Table 12
[3] = 10 uM LA, KOH, 240 explants, Table 12
[4] = 10 uM LA, 247 explants, Table 12
[5] = 50 uM LA, KOH, 246 explants, Table 12
[6] = 50 uM LA, 242 explants, Table 12
[7] = 100 uM LA, KOH, 246 explants, Table 12
[8] = 100 uM LA, 396 explants, Table 12
[9] = 250 uM LA, KOH, 505 explants, Table 11
[10] = 250 uM LA, 246 explants, Table 12
[11] = 250 uM LA, 486 explants, Table 11
[12] = 500 uM LA*, 171 explants, Table 12
[13] = 500 uM LA, KOH, 462 explants, Table 11
[14] = 500 uM LA, 531 explants, Table 11
[15] = 750 uM LA, KOH, 454 explants, Table 11
[16] = 750 uM LA, 535 explants, Table 11
[17] = 1000 uM LA, KOH, 471 explants, Table 11
[18] = 1000 uM LA, 530 explants, Table 11
[19] = 1500 uM LA, KOH, 498 explants, Table 11
[20] = 1500 uM LA, 538 explants, Table 11

`O=C(O)CCCCC1CCSS1` (centres unmarked) [lipoic acid, 1,2-dithiolane-3-pentanoic acid] was tested, and the “Shooting Frequency” value [1] was 5%, the “Total Rooted Plants” value [1] was 2 and the “Total Shoots” value [1] was 13. The “Transformation Efficiency” value [1] was 0.8%, the “Shooting Frequency” value [2] was 7% and the “Total Rooted Plants” value [2] was 3. For the same molecule, the “Total Shoots” value [2] was 18, the “Transformation Efficiency” value [2] was 1.2% and the “Shooting Frequency” value [3] was 5%. For the same molecule, the “Total Rooted Plants” value [3] was 0, the “Total Shoots” value [3] was 13 and the “Transformation Efficiency” value [3] was 0.0%. For the same molecule, the “Shooting Frequency” value [4] was 6%, the “Total Rooted Plants” value [4] was 0 and the “Total Shoots” value [4] was 14. For the same molecule, the “Transformation Efficiency” value [4] was 0.0%, the “Shooting Frequency” value [5] was 7% and the “Total Rooted Plants” value [5] was 1. For the same molecule, the “Total Shoots” value [5] was 17, the “Transformation Efficiency” value [5] was 0.4% and the “Shooting Frequency” value [6] was 9%. The “Total Rooted Plants” value [6] was 1, the “Total Shoots” value [6] was 22 and the “Transformation Efficiency” value [6] was 0.4%. For the same molecule, the “Shooting Frequency” value [7] was 7%, the “Total Rooted Plants” value [7] was 2 and the “Total Shoots” value [7] was 18. The “Transformation Efficiency” value [7] was 0.8%, the “Shooting Frequency” value [8] was 10% and the “Total Rooted Plants” value [8] was 3. For the same molecule, the “Total Shoots” value [8] was 39, the “Transformation Efficiency” value [8] was 0.8% and the “Rooted Plants” value [9] was 13. For the same molecule, the “Shooting Frequency” value [9] was 12%, the “Total Shoots” value [9] was 63 and the “Transformation Efficiency” value [9] was 2.6%. For the same molecule, the “Shooting Frequency” value [10] was 13%, the “Total Rooted Plants” value [10] was 9 and the “Total Shoots” value [10] was 32. The “Transformation Efficiency” value [10] was 3.7%, the “Rooted Plants” value [11] was 7 and the “Shooting Frequency” value [11] was 14%. For the same molecule, the “Total Shoots” value [11] was 69, the “Transformation Efficiency” value [11] was 1.4% and the “Shooting Frequency” value [12] was 11%. The “Total Rooted Plants” value [12] was 5, the “Total Shoots” value [12] was 19 and the “Transformation Efficiency” value [12] was 2.9%. For the same molecule, the “Rooted Plants” value [13] was 7, the “Shooting Frequency” value [13] was 10% and the “Total Shoots” value [13] was 44. The “Transformation Efficiency” value [13] was 1.5%, the “Rooted Plants” value [14] was 9 and the “Shooting Frequency” value [14] was 12%. For the same molecule, the “Total Shoots” value [14] was 64, the “Transformation Efficiency” value [14] was 1.7% and the “Rooted Plants” value [15] was 7. For the same molecule, the “Shooting Frequency” value [15] was 12%, the “Total Shoots” value [15] was 56 and the “Transformation Efficiency” value [15] was 1.5%. The “Rooted Plants” value [16] was 9, the “Shooting Frequency” value [16] was 12% and the “Total Shoots” value [16] was 62. For the same molecule, the “Transformation Efficiency” value [16] was 1.7%, the “Rooted Plants” value [17] was 6 and the “Shooting Frequency” value [17] was 8%. For the same molecule, the “Total Shoots” value [17] was 40, the “Transformation Efficiency” value [17] was 1.3% and the “Rooted Plants” value [18] was 12. For the same molecule, the “Shooting Frequency” value [18] was 10%, the “Total Shoots” value [18] was 52 and the “Transformation Efficiency” value [18] was 2.3%. The “Rooted Plants” value [19] was 10, the “Shooting Frequency” value [19] was 11% and the “Total Shoots” value [19] was 57. The “Transformation Efficiency” value [19] was 2.0%, the “Rooted Plants” value [20] was 13 and the “Shooting Frequency” value [20] was 10%. For the same molecule, the “Total Shoots” value [20] was 53, the “Transformation Efficiency” value [20] was 2.4% and the “increase of transformation frequency” value (lipoic acid concentration of 250 μM) was “about ninefold”. The “effect on transformation efficiency, shoot and rooted plant production” value (lipoic acid concentrations of 250 μM to 1500 μM) was “increased transformation efficiency” and the “effectiveness in the soybean transformation protocol” value (low levels of lipoic acid (5 to 100 μM)) was “not particularly effective”.
